Laboratory results from ChEMBL document CHEMBL1154015, “Structural and theoretical studies of [6-bromo-1-(4-fluorophenylmethyl)-4(1H)-quinolinon-3-yl)]-4-hydroxy-2-oxo-3-butenoïc acid as HIV-1 integrase inhibitor” (Bioorg Med Chem Lett, 2009).

Assays:
[1] = test system: Human immunodeficiency virus 1; assay: Antiviral activity against HIV1 NL4-3 infected in human TZM-bl cells treated 4 hrs before infection measured after 48 hrs postinfection by beta-D-galactopyranoside assay; assay type: functional, organism-based; details: Human immunodeficiency virus 1, NL4-3, TZM-bl
[2] = biological target: T1, Human immunodeficiency virus type 1 integrase (Human immunodeficiency virus 1, UniProt Q7ZJM1); assay: Inhibition of HIV1 integrase strand transfer activity expressed in Escherichia coli BL21 (DE3) by gel based assay in presence of magnesium
[3] = Selectivity index, ratio of CC50 for human TZM-bl cells to EC50 for HIV1 NL4-3; assay type: toxicity, cell-based; details: read-out: Ratio CC50/EC50
[4] = Cytotoxicity against HIV1 NL4-3 infected human TZM-bl cells assessed as reduction in cell viability after 3 days by WST1 assay; assay type: cell-based; details: HIV1 NL4-3 infected TZM-bl cells
[5] = biological target: T1, Human immunodeficiency virus type 1 integrase; assay: Inhibition of HIV1 integrase 3'-processing activity expressed in Escherichia coli BL21 (DE3) by gel based assay in presence of magnesium

T1 sequence (Q7ZJM1 whole entry): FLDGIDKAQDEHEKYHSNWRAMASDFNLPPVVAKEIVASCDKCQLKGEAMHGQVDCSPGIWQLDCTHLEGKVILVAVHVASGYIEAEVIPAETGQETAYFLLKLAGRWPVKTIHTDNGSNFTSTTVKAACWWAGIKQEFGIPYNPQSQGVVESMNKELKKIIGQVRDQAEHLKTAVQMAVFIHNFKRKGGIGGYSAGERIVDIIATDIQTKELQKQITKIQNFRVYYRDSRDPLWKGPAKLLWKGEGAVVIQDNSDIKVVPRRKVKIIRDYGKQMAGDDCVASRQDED

| Structure (SMILES) | EC50 [1] | IC50 [2] | selectivity ratio [3] | CC50 at 72 h [4] | IC50 [5] |
| --- | --- | --- | --- | --- | --- |
| CCOC(=O)C(=O)CC(=O)c1cn(Cc2ccc(F)cc2)c2ccc(Br)cc2c1=O | 17 µM | 120 nM | > 59 | > 1 mM | 78 µM |
| O=C(O)C(=O)CC(=O)c1cn(Cc2ccc(F)cc2)c2ccc(Br)cc2c1=O | 4 µM | 30 nM | > 250 | > 1 mM | 1.6 µM |
